# Columns and labels:
# S. epidermidis = experiment: Inhibition test: samples applied onto bacterial lawns, growth inhibition zone; type: cell-based; settings: for inhibition of S. epidermidis (in words): solvents in water, Table III
# Method: (§1) The Extraction Process: […] The mixture was vortexed for 10 min and the samples were centrifuged for 30 min at 10000 rpm. The supernatant was collected and referred to as the extract. The extract was then filtered through a 0.22 or a 0.45 μm filter. Inhibition Test: The antimicrobial activity of the various extracts was examined by applying samples (5 μl) onto lawns of axillary bacteria. Following incubation of 24 hours at 37° C., inhibition was determined by measuring the diameter of the growth inhibition zone (in cm). In the tables, “+” indicates full growth inhibition(transparent zone), “−” indicates lack of inhibition, and “+/−” indicates partial inhibition (translucent zone). For the purposes of comparative testing, 5 μl aliquots of either red or black henna extracts (20% w/v in 20% v/v ethanol) are applied to the bacterial lawns.
# C. xerosis = experiment: as above; type: cell-based, Corynebacterium xerosis
# Method: as §1
# Streptococcus aureus = settings: Handbook of Medicinal Herbs; cited from earlier work
# oral species = settings: Didry et al. 1994; cited from earlier work
compound,measurement,setting,value
"O=C1C=CC(=O)c2ccccc21 [1,4-naphthoquinone]",Inhibition of S. epidermidis,S. epidermidis; 0.01% in ethanol 20%,−
same,Inhibition of S. epidermidis,S. epidermidis; 0.02% in ethanol 20%,−
same,Inhibition of S. epidermidis,S. epidermidis; 0.2% in ethanol 20%,+
same,"Inhibition of S. epidermidis, zone diameter",S. epidermidis; 0.2% in ethanol 20%,1.4 cm
same,growth inhibition of S. epidermidis (in words),S. epidermidis; comment on Table I,inhibits the growth
same,Inhibition of C. xerosis,C. xerosis; 0.01% in ethanol 20%,−
same,Inhibition of C. xerosis,C. xerosis; 0.02% in ethanol 20%,−
same,Inhibition of C. xerosis,C. xerosis; 0.2% in ethanol 20%,+
same,"Inhibition of C. xerosis, zone diameter",C. xerosis; 0.2% in ethanol 20%,0.8 cm
same,growth inhibition of C. xerosis (in words),C. xerosis; comment on Table I,inhibits the growth
"CCO [ETHANOL, ethanol]",Inhibition of S. epidermidis,S. epidermidis; solvent content 5%,−
same,Inhibition of S. epidermidis,S. epidermidis; solvent content 10%,−
same,Inhibition of S. epidermidis,S. epidermidis; solvent content 15%,−
same,Inhibition of S. epidermidis,S. epidermidis; solvent content 20%,−
same,Inhibition of S. epidermidis,S. epidermidis; solvent content 25%,−
same,Inhibition of S. epidermidis,S. epidermidis; solvent content 30%,−
same,Inhibition of S. epidermidis,S. epidermidis; solvent content 35%,−
same,Inhibition of S. epidermidis,S. epidermidis; solvent content 40%,−
same,Inhibition of S. epidermidis,S. epidermidis; solvent content 45%,−
same,Inhibition of S. epidermidis,S. epidermidis; solvent content 50%,−
same,Inhibition of S. epidermidis,S. epidermidis; solvent content 55%,−
same,Inhibition of S. epidermidis,S. epidermidis; solvent content 60%,−
same,Inhibition of S. epidermidis,S. epidermidis; solvent content 65%,−
same,Inhibition of S. epidermidis,S. epidermidis; solvent content 70%,−
same,Inhibition of S. epidermidis,S. epidermidis; solvent content 75%,−
same,Inhibition of S. epidermidis,S. epidermidis; solvent content 80%,−
same,Inhibition of S. epidermidis,S. epidermidis; solvent content 90%,−
same,Inhibition of S. epidermidis,S. epidermidis; solvent content 100%,−
same,inhibition of S. epidermidis (in words),S. epidermidis,no inhibition
same,inhibition of C. xerosis (in words),C. xerosis; above 40% (v/v) in water,some inhibition
same,Inhibition of C. xerosis,C. xerosis; solvent content 5%,−
same,Inhibition of C. xerosis,C. xerosis; solvent content 10%,−
same,Inhibition of C. xerosis,C. xerosis; solvent content 15%,−
same,Inhibition of C. xerosis,C. xerosis; solvent content 20%,−
same,Inhibition of C. xerosis,C. xerosis; solvent content 25%,−
same,Inhibition of C. xerosis,C. xerosis; solvent content 30%,−
same,Inhibition of C. xerosis,C. xerosis; solvent content 35%,−
same,Inhibition of C. xerosis,C. xerosis; solvent content 40%,+/−
same,"Inhibition of C. xerosis, zone diameter",C. xerosis; solvent content 40%,0.2 cm
same,Inhibition of C. xerosis,C. xerosis; solvent content 45%,+/−
same,"Inhibition of C. xerosis, zone diameter",C. xerosis; solvent content 45%,0.2 cm
same,Inhibition of C. xerosis,C. xerosis; solvent content 50%,+/−
same,"Inhibition of C. xerosis, zone diameter",C. xerosis; solvent content 50%,0.6 cm
same,Inhibition of C. xerosis,C. xerosis; solvent content 55%,+/−
same,"Inhibition of C. xerosis, zone diameter",C. xerosis; solvent content 55%,0.6 cm
same,Inhibition of C. xerosis,C. xerosis; solvent content 60%,+/−
same,"Inhibition of C. xerosis, zone diameter",C. xerosis; solvent content 60%,0.8 cm
same,Inhibition of C. xerosis,C. xerosis; solvent content 65%,+/−
same,"Inhibition of C. xerosis, zone diameter",C. xerosis; solvent content 65%,0.8 cm
same,Inhibition of C. xerosis,C. xerosis; solvent content 70%,+/−
same,"Inhibition of C. xerosis, zone diameter",C. xerosis; solvent content 70%,0.8 cm
same,Inhibition of C. xerosis,C. xerosis; solvent content 75%,+/−
same,"Inhibition of C. xerosis, zone diameter",C. xerosis; solvent content 75%,0.8 cm
same,Inhibition of C. xerosis,C. xerosis; solvent content 80%,+/−
same,"Inhibition of C. xerosis, zone diameter",C. xerosis; solvent content 80%,0.8 cm
same,Inhibition of C. xerosis,C. xerosis; solvent content 90%,+
same,"Inhibition of C. xerosis, zone diameter",C. xerosis; solvent content 90%,1.1 cm
same,Inhibition of C. xerosis,C. xerosis; solvent content 100%,+
same,"Inhibition of C. xerosis, zone diameter",C. xerosis; solvent content 100%,1.3 cm
"CO [METHANOL, methanol]",Inhibition of S. epidermidis,S. epidermidis; solvent content 5%,−
same,Inhibition of S. epidermidis,S. epidermidis; solvent content 10%,−
same,Inhibition of S. epidermidis,S. epidermidis; solvent content 15%,−
same,Inhibition of S. epidermidis,S. epidermidis; solvent content 20%,−
same,Inhibition of S. epidermidis,S. epidermidis; solvent content 25%,−
same,Inhibition of S. epidermidis,S. epidermidis; solvent content 30%,−
same,Inhibition of S. epidermidis,S. epidermidis; solvent content 35%,−
same,Inhibition of S. epidermidis,S. epidermidis; solvent content 40%,−
same,Inhibition of S. epidermidis,S. epidermidis; solvent content 45%,−
same,Inhibition of S. epidermidis,S. epidermidis; solvent content 50%,−
same,Inhibition of S. epidermidis,S. epidermidis; solvent content 55%,−
same,Inhibition of S. epidermidis,S. epidermidis; solvent content 60%,−
same,Inhibition of S. epidermidis,S. epidermidis; solvent content 65%,−
same,Inhibition of S. epidermidis,S. epidermidis; solvent content 70%,−
same,Inhibition of S. epidermidis,S. epidermidis; solvent content 75%,−
same,Inhibition of S. epidermidis,S. epidermidis; solvent content 80%,−
same,Inhibition of S. epidermidis,S. epidermidis; solvent content 90%,−
same,Inhibition of S. epidermidis,S. epidermidis; solvent content 100%,−
same,inhibition of S. epidermidis (in words),S. epidermidis,no inhibition
same,inhibition of C. xerosis (in words),C. xerosis; above 45%,some inhibition
same,Inhibition of C. xerosis,C. xerosis; solvent content 5%,−
same,Inhibition of C. xerosis,C. xerosis; solvent content 10%,−
same,Inhibition of C. xerosis,C. xerosis; solvent content 15%,−
same,Inhibition of C. xerosis,C. xerosis; solvent content 20%,−
same,Inhibition of C. xerosis,C. xerosis; solvent content 25%,−
same,Inhibition of C. xerosis,C. xerosis; solvent content 30%,−
same,Inhibition of C. xerosis,C. xerosis; solvent content 35%,−
same,Inhibition of C. xerosis,C. xerosis; solvent content 40%,−
same,Inhibition of C. xerosis,C. xerosis; solvent content 45%,+/−
same,Inhibition of C. xerosis,C. xerosis; solvent content 50%,+/−
same,Inhibition of C. xerosis,C. xerosis; solvent content 55%,+/−
same,Inhibition of C. xerosis,C. xerosis; solvent content 60%,+/−
same,"Inhibition of C. xerosis, zone diameter",C. xerosis; solvent content 60%,0.8 cm
same,Inhibition of C. xerosis,C. xerosis; solvent content 65%,+/−
same,"Inhibition of C. xerosis, zone diameter",C. xerosis; solvent content 65%,0.8 cm
same,Inhibition of C. xerosis,C. xerosis; solvent content 70%,+/−
same,"Inhibition of C. xerosis, zone diameter",C. xerosis; solvent content 70%,0.8 cm
same,Inhibition of C. xerosis,C. xerosis; solvent content 75%,+/−
same,"Inhibition of C. xerosis, zone diameter",C. xerosis; solvent content 75%,0.8 cm
same,Inhibition of C. xerosis,C. xerosis; solvent content 80%,+/−
same,"Inhibition of C. xerosis, zone diameter",C. xerosis; solvent content 80%,0.8 cm
same,Inhibition of C. xerosis,C. xerosis; solvent content 90%,+/−
same,"Inhibition of C. xerosis, zone diameter",C. xerosis; solvent content 90%,0.8 cm
same,Inhibition of C. xerosis,C. xerosis; solvent content 100%,+/−
same,"Inhibition of C. xerosis, zone diameter",C. xerosis; solvent content 100%,0.8 cm
O=C(O)c1cc(O)c(O)c(O)c1 [gallic acid],Inhibition of S. epidermidis,S. epidermidis; 0.2% in ethanol 20%,−
same,Inhibition of S. epidermidis,S. epidermidis; 0.4% in ethanol 20%,+/−
same,inhibition of “Streptococcus aureus”,Streptococcus aureus,slightly
same,Inhibition of C. xerosis,C. xerosis; 0.2% in ethanol 20%,−
same,Inhibition of C. xerosis,C. xerosis; 0.4% in ethanol 20%,−
O=C1C=C(O)C(=O)c2ccccc21 [lawsone],Inhibition of S. epidermidis,S. epidermidis; 0.01% in ethanol 20%,−
same,Inhibition of S. epidermidis,S. epidermidis; 0.02% in ethanol 20%,−
same,Inhibition of S. epidermidis,S. epidermidis; 0.2% in ethanol 20%,−
same,Inhibition of S. epidermidis,S. epidermidis; 1.0% in ethanol 50%,−
same,Inhibition of S. epidermidis,S. epidermidis; 1.0% in ethanol 100%,−
same,Inhibition of S. epidermidis,S. epidermidis; 1.0% in hot water,−
same,antibacterial activity against oral species,oral species,antibacterial activity
same,Inhibition of C. xerosis,C. xerosis; 0.01% in ethanol 20%,−
same,Inhibition of C. xerosis,C. xerosis; 0.02% in ethanol 20%,−
same,Inhibition of C. xerosis,C. xerosis; 0.2% in ethanol 20%,−
same,Inhibition of C. xerosis,C. xerosis; 1.0% in ethanol 50%,−
same,Inhibition of C. xerosis,C. xerosis; 1.0% in ethanol 100%,−
same,Inhibition of C. xerosis,C. xerosis; 1.0% in hot water,−

# Source: US6548052B2, “Antibacterial deodorizing compositions” (Innoscent Ltd., priority 1997, dated 2003)
